What all share (format): cell-based
In experiment [1] the test system is synovial sarcoma cell lines (SYO1, Yamato, HS-SY-II, and ASKA). Description: Growth of synovial sarcoma cell lines (IncuCyte confluency, crystal violet, colony imaging), Example 3. Here is the method: (§1) Cells were treated with DMSO or the BRD9 degrader, Compound 1, at indicated concentrations, and proliferation was monitored from day 7 to day 14 by measuring confluency over time using an IncuCyte live cell analysis system (FIG. 5). Growth medium and compounds were refreshed every 3-4 days.
(§2) Cells were seeded into 12-well plates and treated with DMSO, 1 μM BRD9 inhibitor, Compound 2 (also known as BI-7273, see Martin et al, J Med Chem. 59(10):4462-4475 (2016); see structure of compound 2 below), or 1 μM BRD9 degrader, Compound 1.
(§3) The number of cells was optimized for each cell line. Growth medium and compounds were refreshed every 3-5 days. SYO1, Yamato, A549, 293T and HS-SY-II cells were fixed and stained at day 11. ASKA cells were fixed and stained at day 23. Staining was done by incubation with crystal violet solution (0.5 g Crystal Violet, 27 ml 37% Formaldehyde, 100 mL 10×PBS, 10 mL Methanol, 863 dH20 to 1 L) for 30 min followed by 3× washes with water and drying the plates for at least 24 h at room temperature. Subsequently plates were scanned on an Odyssey CLx Imaging system (FIG. 6).
(§4) Cells were seeded into 96-well ultra low cluster plate (Costar, #7007) in 200 μL complete media and treated at day 2 with DMSO, Staurosporin, or BRD9 degarder, Compound 1, at indicated doses (FIG. 3C). Media and compounds were changed every 5 d and cell colonies were imaged at day 14.

Experiment [2] relates to synovial sarcoma cell lines (SYO1, HS-SY-II, and ASKA). Description: Crystal violet growth assay in synovial sarcoma cell lines, Example 4. As to conditions: for inhibition of the growth of the cells: synovial sarcoma cell lines SYO1, HS-SY-II, ASKA, day 14. Here is the method:
(§5) Procedure: Cells were seeded into 6-well or 12-well plates and were treated daily with a BRD9 degrader (Compound 1), a bromo-domain BRD9 binder (Compound 2), E3 ligase binder (lenalidomide), DMSO, or staurosporin (positive control for cell killing), at indicated concentrations. The number of cells was optimized for each cell line. Growth media was refreshed every 5 days. By day 14, medium was removed, cells were washed with PBS, and stained using 500 μL of 0.005% (w/v) crystal violet solution in 25% (v/v) methanol for at least 1 hour at room temperature. Subsequently plates were scanned on an Odyssey CLx Imaging system.

The test system of experiment [3] is non-synovial control cancer cell lines (RD, HCT116, and Calu6). Description: Crystal violet growth assay in non-synovial control cancer cell lines, Example 4. As to conditions: day 14. Here is the method: as §5
The test system of experiment [4] is non-synovial control cancer cell lines (293T, A549, G401). Put plainly: Growth of non-synovial control cancer cell lines, Example 3. Here is the method:
as §1, §2, §3, §4

Experiment [5] concerns SYO1 cells. Description: Cell cycle analysis (Click-iT Plus EdU Flow Cytometry Assay). As to conditions: 200 nM or 1 μM, 8 or 13 days, as compared to DMSO and lenalidomide. Here is the method:
(§6) Procedure: SYO1 cells were treated for 8 or 13 days with DMSO, a BRD9 degrader (Compound 1) at 200 nM or 1 μM, or an E3 ligase binder (lenalidomide) at 200 nM. Compounds were refreshed every 5 days. Cell cycle analysis was performed using the Click-iT™ Plus EdU Flow Cytometry Assay (Invitrogen). The apoptosis assay was performed using the Annexin V-FITC Apoptosis Detection Kit (Sigma A9210). Assays were performed according to the manufacturer's protocol.

Experiment [6] relates to SYO1 cells. Put plainly: Apoptosis assay (Annexin V-FITC Apoptosis Detection Kit). The settings on record: 200 nM or 1 μM, 8 days, as compared to DMSO controls. Here is the method:
as §6

For `COc1cc(-c2cn(C)c(=O)c3cnccc23)cc(OC)c1CN(C)C` [Compound 2], the “inhibition of the growth of the cells” value in experiment [1] is given as “inhibition of the growth of the cells”; in experiment [2], “inhibition of the growth of the cells”; in experiment [3], “did not result in inhibition of the growth”; in experiment [4], “does not result in inhibition of the growth”.

Turning to `COc1cc(-c2cn(C)c(=O)c3cnccc23)cc(OC)c1CN(C)CC(=O)NCCOCCOCCNc1cccc2c1C(=O)N(C1CCC(=O)NC1=O)C2=O` (centres unmarked) [Compound 1], the “inhibition of the growth of the cells” value in experiment [1] is listed as “inhibition of the growth of the cells”; in experiment [2] it was “inhibition of the growth of the cells”; in experiment [3], “did not result in inhibition of the growth”; in experiment [4], “does not result in inhibition of the growth”. In addition, the “growth inhibition compared with the other treatments” value in experiment [2] (all synovial cell lines) is recorded as “most significant growth inhibition”. Moreover, the “numbers of cells in the S-phase of the cell cycle” value in experiment [5] is reported as “reduced numbers of cells in the S-phase”. Moreover, the “numbers of early- and late-apoptotic cells” value in experiment [6] was “increased numbers of early- and late-apoptotic cells”.

These data come from patent US12384776B2, “Compounds and uses thereof” (Foghorn Therapeutics Inc., priority 2019, dated 2025).
